{"source": "BindingDB's records for doi:10.1016/j.bmcl.2006.12.084", "about": "(Gsk, 2007)", "data": [{"biological_target": "Free fatty acid receptor 1 (Homo sapiens, UniProt O14842)", "sequence (O14842 whole entry, the tested form may be a part)": "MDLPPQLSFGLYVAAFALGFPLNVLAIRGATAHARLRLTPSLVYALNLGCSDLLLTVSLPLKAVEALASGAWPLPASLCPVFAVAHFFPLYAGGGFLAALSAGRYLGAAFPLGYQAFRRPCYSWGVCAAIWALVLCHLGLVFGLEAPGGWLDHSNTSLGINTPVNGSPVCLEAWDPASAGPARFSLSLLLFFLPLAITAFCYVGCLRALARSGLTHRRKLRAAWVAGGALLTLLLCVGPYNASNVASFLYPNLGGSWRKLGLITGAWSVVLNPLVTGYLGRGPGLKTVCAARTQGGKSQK", "assay": "96-Well Adherent Reporter Cell Assay", "conditions": "22 °C", "protocol": "(§1) The reporter assay for the stable hGPR40-Gal4-Elk1/5xGal4-luc+-expressing CHO cells was first carried out in the serum-free medium in the presence of test ligand for 5h. The medium was then removed and replaced with 1:1 mixture of LucPlusTM (PerkinElmer Life Sciences) and Dulbecco phosphate buffered saline containing 1 mM CaCl2 and 1 mM MgCl2. Plates were incubated in the dark at room temperature for 10 min before luciferase activity was determined using a TopCountTM microplate scintillation counter (PerkinElmer Life Sciences) at a count time of 3 s/well.", "units": {"EC50": "µM"}, "values": [{"smiles": "CC(C(=O)O)c1ccc(NCc2ccc(-c3ccccc3)cc2)cc1", "note": "(configuration not stated) [2-(4-{[(4-phenylphenyl)methyl]amino}phenyl)propanoic acid]", "EC50": "> 31.6"}, {"smiles": "O=C(O)CCc1ccc(NCc2ccc(Cl)s2)cc1", "note": "[3-(4-{[(5-chlorothiophen-2-yl)methyl]amino}phenyl)propanoic acid]", "EC50": 2}, {"smiles": "O=C(O)CCc1ccc(NCc2ccc(C(F)(F)F)cc2)cc1", "note": "[3-[4-({[4-(trifluoromethyl)phenyl]methyl}amino)phenyl]propanoic acid]", "EC50": 2}, {"smiles": "O=C(O)CCc1ccc(NCc2cccnc2)cc1", "note": "[3-{4-[(pyridin-3-ylmethyl)amino]phenyl}propanoic acid]", "EC50": "> 31.6"}, {"smiles": "CN(C)Cc1ccc(CNc2ccc(CCC(=O)O)cc2)cc1", "note": "[3-{4-[({4-[(dimethylamino)methyl]phenyl}methyl)amino]phenyl}propanoic acid]", "EC50": "> 31.6"}]}, {"biological_target": "Free fatty acid receptor 1 (Homo sapiens, UniProt O14842)", "assay": "96-Well Adherent Reporter Cell Assay", "conditions": "25 °C", "protocol": "as §1", "units": {"EC50": "µM"}, "values": [{"smiles": "NC(=O)c1cccc(CNc2ccc(CCC(=O)O)cc2)c1", "note": "[3-(4-{[(3-carbamoylphenyl)methyl]amino}phenyl)propanoic acid]", "EC50": "> 31.6"}, {"smiles": "CS(=O)(=O)Nc1cccc(CNc2ccc(CCC(=O)O)cc2)c1", "note": "[3-(4-{[(3-methanesulfonamidophenyl)methyl]amino}phenyl)propanoic acid]", "EC50": "> 31.6"}, {"smiles": "N#Cc1ccc(CNc2ccc(CCC(=O)O)cc2)cc1", "note": "[3-(4-{[(4-cyanophenyl)methyl]amino}phenyl)propanoic acid]", "EC50": "> 31.6"}, {"smiles": "O=C(O)CCc1ccc(NCc2ccc(O)cc2)cc1", "note": "[3-(4-{[(4-hydroxyphenyl)methyl]amino}phenyl)propanoic acid]", "EC50": "> 31.6"}, {"smiles": "O=C(O)CCc1ccc(NCc2ncc[nH]2)cc1", "note": "[3-{4-[(1H-imidazol-2-ylmethyl)amino]phenyl}propanoic acid]", "EC50": "> 31.6"}, {"smiles": "O=C(O)CCc1ccc(NCc2ccc3c(c2)OCO3)cc1", "note": "[3-{4-[(2H-1,3-benzodioxol-5-ylmethyl)amino]phenyl}propanoic acid]", "EC50": "> 31.6"}, {"smiles": "O=C(O)CCc1ccc(NCc2ccc(C(=O)O)cc2)cc1", "note": "[4-({[4-(2-carboxyethyl)phenyl]amino}methyl)benzoic acid]", "EC50": "> 31.6"}]}]}
